Literature values in patent US20040235808A1, “Androstanes as androgen receptor modulators” (priority 2001, published 2004).

Tests used:
[1] = median of 22 months of treatment
[2] = after 7 years of treatment

Compound	reduction in nonvertebral fractures [1] [%]	reduction in spine fractures [1] [%]	increase in spinal BMD [2] [%]
hPTH(1-34): human parathyroid hormone 1-34 fragment (SVSEIQLMHNLGKHLNSMERVEWLRKKLQDVHNF; Parathyroid hormone; UniProt P01270 32-65, looked up, fragment)	54	≥ 65	
NCCCC(O)(P(=O)([O-])O)P(=O)(O)O.O.O.O.[Na+] [alendronate, (4-amino-1-hydroxybutylidene)-bis-phosphonate monosodium trihydrate]			11
